Experiment: gradient 5% acetonitrile 3 min, to 50% in 2 min, to 85% in 15 min, held 3 min, 100 µL/min
Settings: column: Zorbax Extend-C18 2.1 x 50 mm; eluents: water / acetonitrile, 0.1% formic acid
Method in brief: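 Using water and acetonitrile that each contained 0.1% formic acid, mixtures of ~100 pure standards were separated at 100 μL/min on a Zorbax Extend-C18 column (2.1 × 50 mm, 1.8 μm). The HPLC fed a quadrupole time-of-flight mass spectrometer working in positive and negative ionization mode, with dead and dwell volumes of 40 μL and 900 μL. Data were acquired over 3 months. Retention time was read from computationally picked adduct peaks after manual inspection of each.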

SMILES	RP-LC retention time [s]
Cc1nc(NCCNC(=O)c2cccc(C(F)(F)F)c2)cc(N2CCOCC2)n1	588
COCCNC(=O)C1(CCO)CCN(Cc2ccccc2)C1 (stereo not given)	560
Cc1ccc2[nH]cc(CCN3CC(C(=O)Nc4nnc(CC(C)(C)C)s4)CC3=O)c2c1 (stereo not given)	864
COc1ccc(F)cc1S(=O)(=O)Nc1ccc(CC(=O)NCC(F)(F)F)cc1	869
COc1ccc(-c2noc(Cc3nnc(-c4cccc(F)c4)o3)n2)cc1OC	914
O=C(Cn1nc(N2CCSCC2)c2ccccc2c1=O)Nc1ccc(Br)cc1F	1060
Cn1nc(Br)nc1Sc1ccccc1NC(=O)C1CC1	763
Cn1c(N2CCN(C(=O)Cc3ccc(Cl)cc3)CC2)cc(=O)n(C)c1=O	677
Cc1nccn1CCNC(=O)C(=O)Nc1ccc(OC(F)(F)F)cc1	580
Cc1cccc(Sc2nccnc2N2CCCC(C(=O)Nc3ccc(Br)cc3)C2)c1 (stereo not given)	1290
CC(C)C(NC(=O)NCc1ccccc1)C(=O)N1CCc2ccccc21 (stereo not given)	896
Cc1ccc(-n2ncc3c(N4CCN(C)CC4)ncnc32)cc1C	648
O=C(NCc1ccc(N2CCOCC2)nc1)c1cccc(Br)c1	626
NC(=O)CS(=O)C(c1ccccc1)c1ccccc1 (stereo not given)	710
Cc1[nH]c2ccccc2c1C(=O)C(=O)Nc1ccccc1F	846
COc1ccc(-c2cc3n(n2)CCCN(S(=O)(=O)c2ccc(NC(C)=O)cc2)C3)cc1	779
CC(C)c1ccc(NC(=O)C2CCc3nc(N4CCOCC4)ncc3C2)cc1 (stereo not given)	888
Cc1ccc(-c2ncc(C(=O)Nc3cccc(Br)c3)c(-c3ccncc3)n2)cc1	1050
Cc1cc(C)cc(-c2nc(C3CC(=O)N(c4ccc(F)c(Cl)c4)C3)no2)c1 (stereo not given)	1050
O=c1ccc(-c2ccc(F)cc2)nn1CCc1nc(-c2ccccc2Cl)no1	1020
Cn1c(=O)c(=O)n(CC(=O)NCc2cccc(Br)c2)c2cccnc21	717
COc1ccc(C(=O)N2CCc3ccc(C(=O)NCc4ccc(C)o4)cc32)cc1	865
O=C(O)c1cc2cc(F)ccc2[nH]1	791

SMILES	RP-LC retention time [s]
COC(=O)C1=C(C)NC(SCC(=O)NC2CCCCC2)=C(C#N)C1c1ccccc1F (stereo not given)	1020
O=C(NC1CCCCC1)c1ccc2ccnc(N3CCN(c4ccccc4F)CC3)c2c1	908
Cc1ccc(NC(=O)c2cc(C(C)(C)C)n3nccc3n2)cc1	1320
Cc1ccccc1-c1nc(C)c(C(=O)NC2CC2)s1	863
CN1C(=O)c2cccn2CC1C(=O)NCC1CCCCC1 (stereo not given)	727
Cc1cc(C)c2c(N3CCSCC3)nc(C(=O)NCCN3CCCCC3)nc2n1	559
N[C@@H](Cc1ccc2oc3cc(=O)c4ccccc4c-3nc2c1)C(=O)O	611
Cc1ccc(CC(=O)N2CCC3(C2)C(=O)N(C)c2ccccc23)cc1 (stereo not given)	850
COc1ccc(-c2nc(-c3cn(Cc4ccc(F)cc4)nn3)no2)cc1	963
O=C(NCCOc1ccccc1)C(=O)c1c[nH]c2ccccc12	886
CCn1cnc2cc(-c3noc(C4CC(=O)N(c5cccc(Cl)c5)C4)n3)ccc21 (stereo not given)	731
COc1ccccc1-c1nc(Cc2noc(-c3ccc(F)cc3)n2)c(C)o1	1040
Cn1cccc1C(=O)N1CCC(c2noc(-c3ccncc3)n2)C1 (stereo not given)	720
CN1C(=O)c2cccnc2Sc2cc(NC(=O)C3CCCC3)ccc21	749
CCN(CC)c1nc2ccsc2c(=O)n1CCC(=O)NC1CCCC1	726
O=C(CSc1nnnn1-c1ccccc1)Nc1ncc(Cc2ccccc2Cl)s1	946
Cc1oc2c(c1C(=O)NCC1CCN(Cc3ccc(Cl)cc3)CC1)C1=NCCN1C=N2	567
COc1ccc(-c2noc(-c3nc(-c4ccccc4OC)no3)n2)cc1OC	1070
COc1ccc(S(=O)(=O)NC2CCN(C(=O)C3CCN(C(C)=O)CC3)CC2)cc1	634
O=C(CCNc1cnc2cnccn12)NCc1ccc(C(F)(F)F)cc1	611
Cc1cccc(Cc2cnc[nH]2)c1C	667
O=C(Nc1cccc(F)c1)C1CCN(S(=O)(=O)c2cc(C(=O)N3CCCCCC3)cs2)CC1	939

From the METLIN SMRT retention time set (Domingo-Almenara et al. 2019)
